These results are taken from US20220009920A1 (GB005, Inc., priority 2020, published 2022).

What all share (test): Large panel kinase profiling
What all share (assay type): biochemical
Conditions in all cases: 1 μM test article, 1 mM ATP

One experiment has as its target T1, MAPKAPK2/MK2 (Homo sapiens, UniProt P49137).
T1 construct: AssayQuant Technologies, Inc. (service provider)
Put shortly:
(§1)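 Continuous-read kinase assay: chelation-sensor peptide, 1 mM ATP, compound at 1 μM. Plates kept at 30° C.; fluorescence sampled at 1-min intervals (360/485 nm).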

The next experiment has as its target PRKACG (Homo sapiens, UniProt P22612). Summed up: as §1
In a further experiment the target is T2, NEK9 (Homo sapiens, UniProt Q8TD19).
T2 construct: AssayQuant Technologies, Inc. (assay service)
T2 sequence (Q8TD19 1-979): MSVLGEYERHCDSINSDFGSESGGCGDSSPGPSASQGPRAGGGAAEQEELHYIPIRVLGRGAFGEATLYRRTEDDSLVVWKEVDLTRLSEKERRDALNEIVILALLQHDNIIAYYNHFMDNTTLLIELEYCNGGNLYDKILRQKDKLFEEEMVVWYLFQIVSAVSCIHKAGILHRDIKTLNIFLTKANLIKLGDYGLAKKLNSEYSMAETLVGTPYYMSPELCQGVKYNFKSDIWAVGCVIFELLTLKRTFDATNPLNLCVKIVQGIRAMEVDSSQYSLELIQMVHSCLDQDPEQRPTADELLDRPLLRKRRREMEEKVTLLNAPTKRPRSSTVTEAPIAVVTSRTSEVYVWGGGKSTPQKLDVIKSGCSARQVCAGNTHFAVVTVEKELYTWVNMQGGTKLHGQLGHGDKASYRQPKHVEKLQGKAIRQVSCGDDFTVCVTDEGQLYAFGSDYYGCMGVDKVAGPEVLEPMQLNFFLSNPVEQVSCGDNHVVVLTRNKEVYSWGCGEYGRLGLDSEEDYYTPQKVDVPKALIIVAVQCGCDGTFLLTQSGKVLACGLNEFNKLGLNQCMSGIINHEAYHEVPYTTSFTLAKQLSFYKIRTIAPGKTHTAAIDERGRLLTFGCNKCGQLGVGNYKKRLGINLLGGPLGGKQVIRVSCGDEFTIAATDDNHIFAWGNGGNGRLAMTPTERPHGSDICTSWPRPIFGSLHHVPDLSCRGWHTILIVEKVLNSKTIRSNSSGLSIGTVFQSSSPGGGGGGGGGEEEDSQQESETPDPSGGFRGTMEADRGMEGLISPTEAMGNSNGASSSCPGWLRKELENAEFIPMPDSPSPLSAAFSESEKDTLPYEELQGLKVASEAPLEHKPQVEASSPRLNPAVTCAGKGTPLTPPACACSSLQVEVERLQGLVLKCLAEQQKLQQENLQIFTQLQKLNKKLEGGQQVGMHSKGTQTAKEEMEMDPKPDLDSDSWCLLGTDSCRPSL
Summed up: as §1

A further experiment addresses T3, NEK3 (Homo sapiens, UniProt P51956).
T3 construct: AssayQuant Technologies, Inc. (assay service)
T3 sequence (P51956 1-506): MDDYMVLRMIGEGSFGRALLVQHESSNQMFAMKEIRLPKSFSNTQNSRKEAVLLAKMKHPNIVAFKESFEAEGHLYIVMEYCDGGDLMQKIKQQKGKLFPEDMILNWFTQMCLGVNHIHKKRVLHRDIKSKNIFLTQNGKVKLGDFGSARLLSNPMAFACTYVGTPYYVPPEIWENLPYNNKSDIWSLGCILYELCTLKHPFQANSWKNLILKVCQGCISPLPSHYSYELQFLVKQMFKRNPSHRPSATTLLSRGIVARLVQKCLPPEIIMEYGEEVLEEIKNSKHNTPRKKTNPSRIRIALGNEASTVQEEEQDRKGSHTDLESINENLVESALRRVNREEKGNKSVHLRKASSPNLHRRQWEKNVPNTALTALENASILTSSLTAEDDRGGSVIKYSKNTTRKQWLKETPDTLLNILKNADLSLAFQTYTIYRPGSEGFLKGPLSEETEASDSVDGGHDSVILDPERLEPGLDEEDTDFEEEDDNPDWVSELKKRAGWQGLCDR
Summed up:
as §1

The target of a further experiment is T4, CDC42BPB/MRCKB (Homo sapiens, UniProt Q9Y5S2).
T4 construct: AssayQuant Technologies, Inc. (ran the panel)
Put shortly:
as §1

The target in the next experiment is T5, MAPKAPK5/MK5 (Homo sapiens, UniProt Q8IW41).
T5 construct: AssayQuant Technologies, Inc. (service provider)
T5 sequence (Q8IW41 1-473): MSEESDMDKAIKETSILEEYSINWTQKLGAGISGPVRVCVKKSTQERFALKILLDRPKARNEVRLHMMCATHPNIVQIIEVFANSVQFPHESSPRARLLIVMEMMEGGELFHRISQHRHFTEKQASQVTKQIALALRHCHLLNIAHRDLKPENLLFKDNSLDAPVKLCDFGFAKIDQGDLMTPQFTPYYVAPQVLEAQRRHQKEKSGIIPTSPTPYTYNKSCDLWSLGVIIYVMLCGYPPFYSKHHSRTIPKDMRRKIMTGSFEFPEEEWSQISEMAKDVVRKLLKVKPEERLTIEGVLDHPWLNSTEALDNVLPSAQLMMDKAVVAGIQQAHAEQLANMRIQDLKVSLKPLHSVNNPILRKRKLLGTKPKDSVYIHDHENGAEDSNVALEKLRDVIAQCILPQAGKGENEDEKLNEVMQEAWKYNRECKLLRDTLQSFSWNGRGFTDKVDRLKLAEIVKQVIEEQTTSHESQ
Put shortly:
as §1

A further experiment addresses T6, CSK (Homo sapiens, UniProt P41240).
T6 construct: AssayQuant Technologies, Inc. (service laboratory)
Put shortly: as §1

The target of the next experiment is LRRK2 (Homo sapiens, UniProt Q5S007). Put shortly: as §1
A further experiment addresses CAMK1G (Homo sapiens, UniProt Q96NX5). Summed up: as §1
A further experiment addresses T7, RPS6KA5/MSK1 (Homo sapiens, UniProt O75582).
T7 construct: AssayQuant Technologies, Inc. (contract assay)
Put shortly:
as §1

Chain of PRKACG (P22612 whole entry, species assumed): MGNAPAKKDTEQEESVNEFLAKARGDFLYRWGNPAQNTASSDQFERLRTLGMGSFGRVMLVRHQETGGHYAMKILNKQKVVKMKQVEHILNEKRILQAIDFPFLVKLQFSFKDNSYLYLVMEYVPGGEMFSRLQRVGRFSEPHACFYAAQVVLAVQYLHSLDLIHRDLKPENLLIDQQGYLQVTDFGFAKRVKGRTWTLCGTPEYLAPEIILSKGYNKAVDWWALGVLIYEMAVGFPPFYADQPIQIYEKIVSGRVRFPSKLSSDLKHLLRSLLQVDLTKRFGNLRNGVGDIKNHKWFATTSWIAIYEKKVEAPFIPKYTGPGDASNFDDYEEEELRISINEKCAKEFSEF
Chain of LRRK2 (Q5S007 whole entry, species assumed): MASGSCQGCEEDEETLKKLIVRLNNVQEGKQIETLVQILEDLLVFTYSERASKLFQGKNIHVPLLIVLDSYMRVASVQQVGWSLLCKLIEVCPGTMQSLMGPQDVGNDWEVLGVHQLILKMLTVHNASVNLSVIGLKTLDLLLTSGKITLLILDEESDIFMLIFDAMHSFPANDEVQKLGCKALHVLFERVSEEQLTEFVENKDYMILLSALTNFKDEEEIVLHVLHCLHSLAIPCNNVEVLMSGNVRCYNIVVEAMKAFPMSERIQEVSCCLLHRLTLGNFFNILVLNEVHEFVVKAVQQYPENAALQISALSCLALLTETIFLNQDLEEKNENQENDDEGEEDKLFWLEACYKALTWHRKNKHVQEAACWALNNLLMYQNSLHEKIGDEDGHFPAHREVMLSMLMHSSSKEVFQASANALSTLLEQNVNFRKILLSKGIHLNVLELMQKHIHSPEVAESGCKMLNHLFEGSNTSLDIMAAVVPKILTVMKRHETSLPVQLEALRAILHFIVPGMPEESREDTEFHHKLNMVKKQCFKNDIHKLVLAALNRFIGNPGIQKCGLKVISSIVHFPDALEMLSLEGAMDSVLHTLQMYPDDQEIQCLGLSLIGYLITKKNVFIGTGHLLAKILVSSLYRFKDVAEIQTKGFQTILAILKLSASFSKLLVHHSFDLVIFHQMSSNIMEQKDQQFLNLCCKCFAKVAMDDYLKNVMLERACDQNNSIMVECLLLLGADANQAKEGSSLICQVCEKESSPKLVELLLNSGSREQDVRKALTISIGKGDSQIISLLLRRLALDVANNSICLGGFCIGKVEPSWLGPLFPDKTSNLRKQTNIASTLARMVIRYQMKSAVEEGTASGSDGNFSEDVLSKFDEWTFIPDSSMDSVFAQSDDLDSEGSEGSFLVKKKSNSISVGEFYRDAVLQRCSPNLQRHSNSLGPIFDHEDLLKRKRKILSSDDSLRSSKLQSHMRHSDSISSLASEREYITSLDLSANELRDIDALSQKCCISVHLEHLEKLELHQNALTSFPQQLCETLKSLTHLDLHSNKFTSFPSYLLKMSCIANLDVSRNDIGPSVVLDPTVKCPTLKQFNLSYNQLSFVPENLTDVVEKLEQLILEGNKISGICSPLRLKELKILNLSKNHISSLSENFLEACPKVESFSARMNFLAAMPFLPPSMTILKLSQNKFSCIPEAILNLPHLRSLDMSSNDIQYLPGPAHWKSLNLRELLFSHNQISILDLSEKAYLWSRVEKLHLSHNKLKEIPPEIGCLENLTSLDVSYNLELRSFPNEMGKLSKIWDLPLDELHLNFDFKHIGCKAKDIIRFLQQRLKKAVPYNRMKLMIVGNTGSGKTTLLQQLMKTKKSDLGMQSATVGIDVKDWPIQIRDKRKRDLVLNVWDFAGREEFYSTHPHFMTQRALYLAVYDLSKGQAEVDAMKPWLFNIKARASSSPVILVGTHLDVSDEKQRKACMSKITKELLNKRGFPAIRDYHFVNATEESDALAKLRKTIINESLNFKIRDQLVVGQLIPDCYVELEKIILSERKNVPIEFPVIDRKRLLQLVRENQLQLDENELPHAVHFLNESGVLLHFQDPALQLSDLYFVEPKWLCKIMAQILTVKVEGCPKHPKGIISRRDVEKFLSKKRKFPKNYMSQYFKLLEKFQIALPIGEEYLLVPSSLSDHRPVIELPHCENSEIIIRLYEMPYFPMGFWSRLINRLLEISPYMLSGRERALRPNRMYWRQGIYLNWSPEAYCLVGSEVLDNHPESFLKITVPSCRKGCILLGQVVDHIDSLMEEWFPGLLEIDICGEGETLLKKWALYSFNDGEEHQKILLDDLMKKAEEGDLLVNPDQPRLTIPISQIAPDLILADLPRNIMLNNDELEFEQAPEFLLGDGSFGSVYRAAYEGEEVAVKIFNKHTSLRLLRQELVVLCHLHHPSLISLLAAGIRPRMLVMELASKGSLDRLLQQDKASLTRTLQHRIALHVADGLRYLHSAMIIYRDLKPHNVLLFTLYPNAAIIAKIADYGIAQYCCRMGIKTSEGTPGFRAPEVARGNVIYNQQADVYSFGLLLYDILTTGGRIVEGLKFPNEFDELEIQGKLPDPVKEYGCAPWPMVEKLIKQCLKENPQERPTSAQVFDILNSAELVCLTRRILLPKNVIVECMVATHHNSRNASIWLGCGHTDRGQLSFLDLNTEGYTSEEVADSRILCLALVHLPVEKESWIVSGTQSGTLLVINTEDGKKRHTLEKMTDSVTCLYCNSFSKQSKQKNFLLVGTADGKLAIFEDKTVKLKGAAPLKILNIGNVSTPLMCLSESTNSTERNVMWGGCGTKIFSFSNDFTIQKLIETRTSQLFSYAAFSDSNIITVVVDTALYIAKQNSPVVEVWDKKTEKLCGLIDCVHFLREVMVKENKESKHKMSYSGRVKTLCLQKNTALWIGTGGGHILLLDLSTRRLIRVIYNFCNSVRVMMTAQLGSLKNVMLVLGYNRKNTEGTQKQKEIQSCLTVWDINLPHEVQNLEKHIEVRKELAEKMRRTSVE
T6 sequence (P41240 whole entry, species assumed): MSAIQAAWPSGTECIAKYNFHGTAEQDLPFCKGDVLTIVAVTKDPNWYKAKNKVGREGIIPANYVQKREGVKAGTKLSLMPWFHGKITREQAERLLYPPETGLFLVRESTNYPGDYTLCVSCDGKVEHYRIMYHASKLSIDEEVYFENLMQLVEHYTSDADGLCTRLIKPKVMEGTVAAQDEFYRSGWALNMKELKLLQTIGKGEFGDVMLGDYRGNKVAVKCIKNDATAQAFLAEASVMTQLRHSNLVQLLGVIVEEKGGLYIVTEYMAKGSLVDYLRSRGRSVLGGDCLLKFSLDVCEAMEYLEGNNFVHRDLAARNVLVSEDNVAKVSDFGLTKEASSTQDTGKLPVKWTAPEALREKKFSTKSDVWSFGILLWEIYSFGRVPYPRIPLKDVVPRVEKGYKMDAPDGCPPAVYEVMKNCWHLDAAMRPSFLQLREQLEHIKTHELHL
T1 sequence (P49137 whole entry): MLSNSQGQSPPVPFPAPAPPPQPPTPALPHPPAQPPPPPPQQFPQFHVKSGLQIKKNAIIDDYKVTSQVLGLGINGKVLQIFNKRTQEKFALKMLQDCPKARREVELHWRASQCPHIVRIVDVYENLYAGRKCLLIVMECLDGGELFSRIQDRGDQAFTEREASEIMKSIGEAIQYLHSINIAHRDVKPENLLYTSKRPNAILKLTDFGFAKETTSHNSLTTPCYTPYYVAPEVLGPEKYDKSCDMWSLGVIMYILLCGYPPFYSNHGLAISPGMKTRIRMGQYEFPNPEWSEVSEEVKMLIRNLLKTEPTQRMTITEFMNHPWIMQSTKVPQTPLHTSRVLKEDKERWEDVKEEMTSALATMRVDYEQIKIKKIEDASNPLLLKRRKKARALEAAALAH
Chain of CAMK1G (Q96NX5 whole entry): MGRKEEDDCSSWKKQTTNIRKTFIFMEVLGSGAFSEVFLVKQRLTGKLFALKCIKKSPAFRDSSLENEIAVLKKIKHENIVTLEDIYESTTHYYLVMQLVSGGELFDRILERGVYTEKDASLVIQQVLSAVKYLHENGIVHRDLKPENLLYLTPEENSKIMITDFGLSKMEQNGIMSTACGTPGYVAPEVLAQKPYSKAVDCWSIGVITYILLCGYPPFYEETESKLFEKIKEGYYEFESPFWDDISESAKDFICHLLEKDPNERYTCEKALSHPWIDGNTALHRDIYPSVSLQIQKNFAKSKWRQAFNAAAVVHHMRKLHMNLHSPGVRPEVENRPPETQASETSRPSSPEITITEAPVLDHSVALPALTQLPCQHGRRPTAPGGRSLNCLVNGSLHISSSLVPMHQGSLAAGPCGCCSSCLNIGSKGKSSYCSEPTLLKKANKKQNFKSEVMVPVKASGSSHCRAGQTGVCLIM
T7 sequence (O75582 whole entry): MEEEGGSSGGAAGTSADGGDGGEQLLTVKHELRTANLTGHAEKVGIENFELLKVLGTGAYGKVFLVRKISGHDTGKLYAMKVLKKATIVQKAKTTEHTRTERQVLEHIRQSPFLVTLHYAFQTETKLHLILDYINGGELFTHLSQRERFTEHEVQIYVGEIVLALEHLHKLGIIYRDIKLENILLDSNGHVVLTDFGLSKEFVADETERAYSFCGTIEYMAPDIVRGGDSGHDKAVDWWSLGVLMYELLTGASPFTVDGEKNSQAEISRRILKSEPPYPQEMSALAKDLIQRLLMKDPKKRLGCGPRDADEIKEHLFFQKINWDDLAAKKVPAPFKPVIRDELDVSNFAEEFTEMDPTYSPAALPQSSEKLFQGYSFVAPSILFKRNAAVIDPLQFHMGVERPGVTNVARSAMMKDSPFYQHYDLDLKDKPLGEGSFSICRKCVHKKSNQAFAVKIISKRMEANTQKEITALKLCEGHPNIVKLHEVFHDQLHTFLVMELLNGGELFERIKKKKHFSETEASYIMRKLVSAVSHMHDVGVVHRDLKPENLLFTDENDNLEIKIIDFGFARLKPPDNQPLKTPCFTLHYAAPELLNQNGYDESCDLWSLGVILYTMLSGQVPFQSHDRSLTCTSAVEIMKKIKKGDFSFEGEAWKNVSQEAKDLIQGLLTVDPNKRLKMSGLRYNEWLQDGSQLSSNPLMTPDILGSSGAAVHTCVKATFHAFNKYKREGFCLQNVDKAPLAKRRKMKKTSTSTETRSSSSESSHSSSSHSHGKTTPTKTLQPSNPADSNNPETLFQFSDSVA

Take `C=CC(=O)N1CCCC(c2c(F)cc(C(N)=O)c3[nH]c4c(c23)CCCCC4)C1` (single isomer, unassigned) [Compound 5-6]: the inhibition (commonly the relative decrease from the control value, in per cent) at 1 µM was -5.9% against MAPKAPK2/MK2; 4.2% against PRKACG; -9.3% on NEK9; -21.2% against NEK3; -31% on CDC42BPB/MRCKB; 3.7% against MAPKAPK5/MK5. In addition, the inhibition at 1 µM on CSK was -9.4%; on LRRK2, -8.9%; against CAMK1G, 15.6%; at RPS6KA5/MSK1, -20.7%.

With `C=CC(=O)N1CCC[C@@H](c2c(F)cc(C(N)=O)c3[nH]c4c(c23)CC2(CC4)CC2)C1` [Compound 6-2, (S)-5-(1-acryloylpiperidin-3-yl)-6-fluoro-1,2,4,9-tetrahydrospiro[carbazole-3,1′-cyclopropane]-8-carboxamide], the inhibition at 1 µM is 24.1% against MAPKAPK2/MK2; -27.2% against PRKACG; 18% against NEK9; -8.1% against NEK3; -12.6% against CDC42BPB/MRCKB; 8.6% at MAPKAPK5/MK5. Also, the inhibition at 1 µM is -6.4% against CSK, -2.7% against LRRK2, 19.6% against CAMK1G and -4.2% at RPS6KA5/MSK1.

Consider `C=CC(=O)N1CCC[C@@H](c2c(F)cc(C(N)=O)c3[nH]c4c(c23)CCC4)C1` [Compound 10-2, (S)-8-(1-acryloylpiperidin-3-yl)-7-fluoro-1,2,3,4-tetrahydrocyclo-penta[b]indole-5-carboxamide], for which the inhibition at 1 µM is -7.1% against MAPKAPK2/MK2; -19.2% against PRKACG; 2.4% against NEK9; -5% at NEK3; -10.2% against CDC42BPB/MRCKB; -12.6% at MAPKAPK5/MK5. Further, the inhibition at 1 µM is -8.5% at CSK, -7.2% on LRRK2, 9.7% at CAMK1G and -14.5% against RPS6KA5/MSK1.
